Data published in patent US9969726B2, “Metabotropic glutamate receptor negative allosteric modulators (NAMS) and uses thereof” (Sanford-Burnham Medical Research Institute, priority 2014, dated 2018).
Like-named read-outs stand apart in the source and are kept apart here.

How the values were obtained:
[1] = target: rat mGlu2 receptor (Rattus norvegicus (Rat), UniProt P31421); experiment: mGlu2 in vitro GIRK thallium flux assay; assay type: cell-based; details: NAM, EC80 glutamate, HEK-293 GIRK cells
Procedure: (§1) All cell culture reagents were purchased from Invitrogen Corp. (Carlsbad, Calif.) unless otherwise noted. Compound activity at the group II (mGlu2 and mGlu3) mGlus was assessed using thallium flux through GIRK channels. Briefly, cells were plated into 384-well, black-walled, clear-bottomed poly-D-lysine-coated plates at a density of 15,000 cells/20 μL/well in DMEM containing 10% dialyzed FBS, 20 mM HEPES, and 100 units/mL penicillin/streptomycin (assay media). Plated cells were incubated overnight at 37° C. in the presence of 5% CO2. […] Cells were incubated for 1 h at room temperature, and the dye exchanged to assay buffer using an ELX405, leaving 20 μL/well. Test compounds were diluted to 2 times their final desired concentration in assay buffer (0.3% DMSO final concentration). […] Cell plates and compound plates were loaded onto a kinetic imaging plate reader (FDSS 6000 or 7000; Hamamatsu Corporation, Bridgewater, N.J.). Appropriate baseline readings were taken (10 images at 1 Hz; excitation, 470±20 nm; emission, 540±30 nm) and test compounds were added in a 20 μL volume and incubated for either 2.5 min or 60 min as indicated before the addition of 10 μL of thallium buffer with or without agonist. After the addition of agonist, data were collected for approximately an additional 2.5 min. Data were analyzed using Excel (Microsoft Corp, Redmond, Wash.). The slope of the fluorescence increase beginning 5 s after thallium/agonist addition and ending 15 s after thallium/agonist addition was calculated, corrected to vehicle and maximal agonist control slope values, and plotted in using either XLfit (ID Business Solutions Ltd) or Prism software (GraphPad Software, San Diego, Calif.) to generate concentration-response curves. Potencies were calculated from fits using a four-point parameter logistic equation. For concentration-response curve experiments, compounds were serially diluted 1:3 into 10 point concentration response curves and were transferred to daughter plates using an Echo acoustic plate reformatter (Labcyte, Sunnyvale, Calif.). Test compounds were applied and followed by EC80 concentrations of glutamate.

[2] = target: rat mGlu3 receptor (Rattus norvegicus (Rat), UniProt P31422); experiment: mGlu3 in vitro GIRK thallium flux assay; assay type: cell-based; details: NAM; 2.5 min compound incubation; EC80 glutamate; HEK-293 GIRK cells
Procedure: as §1

[3] = 2.5 min compound incubation, read-out: mGlu2 EC50 (μM) (2.5 min)
[4] = read-out: mGlu2 EC50 (μM) (60 min), 60 min compound incubation
[5] = mGlu2 EC50 (μM) (60 min), 60 min compound incubation

Sequence of rat mGlu2 receptor (P31421 19-872): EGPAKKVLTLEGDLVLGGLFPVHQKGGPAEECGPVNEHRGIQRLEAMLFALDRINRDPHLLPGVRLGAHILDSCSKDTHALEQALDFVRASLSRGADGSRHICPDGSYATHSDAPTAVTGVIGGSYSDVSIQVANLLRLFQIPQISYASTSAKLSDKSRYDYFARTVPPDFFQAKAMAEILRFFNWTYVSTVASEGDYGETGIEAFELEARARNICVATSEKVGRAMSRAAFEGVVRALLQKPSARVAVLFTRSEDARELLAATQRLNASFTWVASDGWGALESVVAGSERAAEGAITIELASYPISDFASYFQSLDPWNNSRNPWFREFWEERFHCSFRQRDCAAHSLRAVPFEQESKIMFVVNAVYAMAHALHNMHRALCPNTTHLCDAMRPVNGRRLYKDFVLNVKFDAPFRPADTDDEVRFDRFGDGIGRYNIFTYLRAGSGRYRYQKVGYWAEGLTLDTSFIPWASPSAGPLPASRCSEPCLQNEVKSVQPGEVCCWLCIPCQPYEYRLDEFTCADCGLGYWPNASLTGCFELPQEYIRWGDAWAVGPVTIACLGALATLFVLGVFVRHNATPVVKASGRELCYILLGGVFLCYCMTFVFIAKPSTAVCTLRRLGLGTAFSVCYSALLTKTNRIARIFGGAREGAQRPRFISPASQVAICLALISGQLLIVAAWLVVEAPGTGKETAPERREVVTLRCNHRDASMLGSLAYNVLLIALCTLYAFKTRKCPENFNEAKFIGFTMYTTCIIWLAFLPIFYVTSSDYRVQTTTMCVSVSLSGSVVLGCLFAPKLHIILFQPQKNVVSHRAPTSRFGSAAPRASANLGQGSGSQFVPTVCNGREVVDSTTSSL
Sequence of rat mGlu3 receptor (P31422 23-879): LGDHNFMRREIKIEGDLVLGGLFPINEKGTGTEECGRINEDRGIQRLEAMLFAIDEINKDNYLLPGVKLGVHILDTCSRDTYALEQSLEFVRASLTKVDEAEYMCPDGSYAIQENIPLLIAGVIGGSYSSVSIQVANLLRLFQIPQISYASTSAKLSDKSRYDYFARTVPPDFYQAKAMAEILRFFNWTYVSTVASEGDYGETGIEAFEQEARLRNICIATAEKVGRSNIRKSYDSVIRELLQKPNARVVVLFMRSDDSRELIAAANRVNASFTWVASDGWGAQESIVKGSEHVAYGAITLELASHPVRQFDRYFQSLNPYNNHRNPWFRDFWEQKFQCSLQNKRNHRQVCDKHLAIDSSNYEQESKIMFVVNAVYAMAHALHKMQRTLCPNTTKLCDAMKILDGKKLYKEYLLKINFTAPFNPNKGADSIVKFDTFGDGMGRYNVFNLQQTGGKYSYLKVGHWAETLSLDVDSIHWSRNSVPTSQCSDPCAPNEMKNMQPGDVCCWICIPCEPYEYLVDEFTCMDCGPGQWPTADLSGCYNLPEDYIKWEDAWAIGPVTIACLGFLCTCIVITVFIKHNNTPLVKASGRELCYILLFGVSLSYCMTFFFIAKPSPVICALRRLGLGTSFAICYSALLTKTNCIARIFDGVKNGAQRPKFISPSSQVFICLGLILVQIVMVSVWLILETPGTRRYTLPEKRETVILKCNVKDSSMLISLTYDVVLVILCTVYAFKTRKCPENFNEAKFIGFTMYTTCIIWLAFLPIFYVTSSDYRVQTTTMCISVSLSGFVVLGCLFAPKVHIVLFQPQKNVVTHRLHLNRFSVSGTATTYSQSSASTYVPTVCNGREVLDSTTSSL

Structure (SMILES) | EC50 [1, 3] [µM] | EC50 [1, 4] [µM] | EC50 [2] [µM] | EC50 [1, 5] [µM]
O=C(O)c1cc(-c2cccc(-c3nc(-c4ccc[nH]4)cc(C(F)(F)F)n3)c2)ccc1F [Example 106, 3′-(4-(1H-Pyrrol-2-yl)-6-(trifluoromethyl)pyrimidin-2-yl)-4-fluorobiphenyl-3-carboxylic Acid] | 1.19 | 1.42 | 5.06 | 
O=C(O)c1cccc(-c2cccc(-c3nc(-c4ccc(C(F)(F)F)nc4)cc(C(F)(F)F)n3)c2)c1 [Example 69, 3′-(4-(Trifluoromethyl)-6-(6-(trifluoromethyl)pyridin-3-yl)pyrimidin-2-yl)biphenyl-3-carboxylic Acid] | 0.95 | 0.11 | 1.07 | 
O=C(O)c1cccc(-c2cccc(-c3csc(-c4ccc5ccccc5c4)n3)c2)c1 [Example 32, 3-[3-(2-(2-Naphthyl)-1,3-thiazol-4-yl)phenyl]benzoic acid] | > 10 |  | > 30 | 4.98
Cc1cc2c(cc1C(F)(F)F)NC(=O)CC(c1cccc(OCc3ccccc3)c1)=N2 [Example 144, 4-(3-(Benzyloxy)phenyl)-7-methyl-8-(trifluoromethyl)-1H-benzo[b][1,4]diazepin-2(3H)-one] | > 10 |  | 2.93 | 2.36
O=C(O)c1cccc(-c2cccc(-c3csc(-c4ccccc4)n3)c2)c1 [Example 28, 3′-(2-Phenylthiazol-4-yl)biphenyl-3-carboxylic Acid] |  |  | > 10 | 0.2
O=C(O)c1cccc(-c2cccc(-c3nc(-c4ccccc4)n(-c4ccccc4)n3)c2)c1 [Example 49A, 3′-(1,5-Diphenyl-1H-1,2,4-triazol-3-yl)-[1,1′-biphenyl]-3-carboxylic Acid] | > 10 |  | 1.36 | > 10
Cc1cccc(-c2cc(C(F)(F)F)nc(-c3cccc(-c4ccc(F)c(C(=O)O)c4)c3)n2)c1 [Example 92, 4-Fluoro-3′-(4-m-tolyl-6-(trifluoromethyl)pyrimidin-2-yl)biphenyl-3-carboxylic Acid] | 2.79 | 0.4 | 3.37 | 
N#Cc1cc(C2=Nc3ccc(C#Cc4ccc(F)cc4)cc3NC(=O)C2)ccn1 [Example 185, 4-(8-((4-Fluorophenyl)ethynyl)-2-oxo-2,3-dihydro-1H-benzo[b][1,4]diazepin-4-yl)picolinonitrile] | > 10 |  | 1.45 | 
O=C(O)c1ccccc1-c1cccc(-c2nc(-c3ccccc3)n(-c3ccccc3)n2)c1 [Example 61, 3′-(1,5-Diphenyl-1H-1,2,4-triazol-3-yl)-[1,1′-biphenyl]-2-carboxylic Acid] | > 30 | > 30 | > 10 | 
O=C(O)c1cc(-c2cccc(-c3nc(-c4cc(C(F)(F)F)cc(C(F)(F)F)c4)cc(C(F)(F)F)n3)c2)ccc1F [Example 105, 3′-(4-(3,5-Bis(trifluoromethyl)phenyl)-6-(trifluoromethyl)pyrimidin-2-yl)-4-fluorobiphenyl-3-carboxylic Acid] | > 10 | 3.19 | > 10 | 
O=C(O)c1cc(-c2cccc(-c3csc(-c4ccccc4)n3)c2)cc([N+](=O)[O-])c1 [Example 13, 5-Nitro-3′-(2-phenylthiazol-4-yl)biphenyl-3-carboxylic Acid] | > 10 |  | > 10 | > 10
COc1ccc(-c2nc(-c3cccc(-c4cccc(C(=O)O)c4)c3)cs2)cc1OC [Example 29, 3-{3-[2-(3,4-Dimethoxyphenyl)-1,3-thiazol-4-yl]phenyl}benzoic acid] | 2.58 |  | 4.02 | 1.1
O=C(O)c1cc(-c2cccc(-c3nc(-c4ccccc4F)cc(C(F)(F)F)n3)c2)ccc1F [Example 100, 4-Fluoro-3′-(4-(2-fluorophenyl)-6-(trifluoromethyl)pyrimidin-2-yl)biphenyl-3-carboxylic Acid] | 1.21 | 0.16 | 2.21 | 
Cc1cc(-c2cccc(C3CC(=O)Nc4cc(NC(=O)Oc5ccccc5)ccc4N3)c2)cc(C)n1 (stereo not shown) [Example 163, Phenyl (2-(3-(2,6-dimethylpyridin-4-yl)phenyl)-4-oxo-2,3,4,5-tetrahydro-1H-benzo[b][1,4]diazepin-7-yl)carbamate] | > 10 | > 10 | > 10 | 
O=C1CC(c2ccnc(Cl)c2)=Nc2ccc(-c3cc(F)cc(F)c3)cc2N1 [Example 190, 4-(2-Chloropyridin-4-yl)-8-(3,5-difluorophenyl)-1,3-dihydro-2H-benzo[b][1,4]diazepin-2-one] | > 10 |  | > 10 | 
O=C(O)c1cc(F)cc(-c2cccc(-c3nc(-c4ccccc4)n(-c4ccccc4)n3)c2)c1 [Example 52, 3′-(1,5-Diphenyl-1H-1,2,4-triazol-3-yl)-5-fluorobiphenyl-3-carboxylic Acid] | > 10 |  | 3.11 | > 10
Cc1cc2c(cc1C(F)(F)F)NC(=O)CC(c1cccc(Sc3ncccn3)c1)N2 (single isomer, unassigned) [Example 166B, 7-Methyl-4-(3-(pyrimidin-2-ylthio)phenyl)-8-(trifluoromethyl)-4,5-dihydro-1H-benzo[b][1,4]diazepin-2(3H)-one] | 8.47 | 1.23 | 4.53 | 
COc1ccc(C(=O)O)cc1-c1cccc(-c2nc(-c3ccc(C(F)(F)F)nc3)cc(C(F)(F)F)n2)c1 [Example 77, 6-Methoxy-3′-(4-(trifluoromethyl)-6-(6-(trifluoromethyl)pyridin-3-yl)pyrimidin-2-yl)biphenyl-3-carboxylic Acid] | 0.96 | 0.29 | 1.59 | 
O=C(O)c1cc(-c2cccc(-c3nc(-c4cc5ccccc5o4)cc(C(F)(F)F)n3)c2)ccc1F [Example 101, 3′-(4-(Benzofuran-2-yl)-6-(trifluoromethyl)pyrimidin-2-yl)-4-fluorobiphenyl-3-carboxylic Acid] | > 10 | 0.95 | > 10 | 
Cc1ccccc1-c1cc(C(F)(F)F)nc(-c2cccc(-c3ccc(F)c(C(=O)O)c3)c2)n1 [Example 91, 4-Fluoro-3′-(4-o-tolyl-6-(trifluoromethyl)pyrimidin-2-yl)biphenyl-3-carboxylic acid] | 1.52 | 0.28 | > 10 | 
O=C(O)c1cc(F)cc(-c2ccc(-c3nc(-c4ccc(C(F)(F)F)nc4)cc(C(F)(F)F)n3)cc2)c1 [Example 84, 5-Fluoro-4′-(4-(trifluoromethyl)-6-(6-(trifluoromethyl)pyridin-3-yl)pyrimidin-2-yl)biphenyl-3-carboxylic Acid] | 2.79 |  | 4.91 | 
O=C(O)c1cc(-c2cccc(-c3nc(-c4ccc(C(F)(F)F)cc4)cc(C(F)(F)F)n3)c2)ccc1F [Example 108, 4-Fluoro-3′-(4-(trifluoromethyl)-6-(4-(trifluoromethyl)phenyl)pyrimidin-2-yl)biphenyl-3-carboxylic Acid] | 1.5 |  | 1.49 | 
O=C(O)c1cc(-c2cccc(Oc3nc(-c4ccco4)cc(C(F)(F)F)n3)c2)ccc1F [Example 128, 4-Fluoro-3′-(4-(furan-2-yl)-6-(trifluoromethyl)pyrimidin-2-yloxy)biphenyl-3-carboxylic Acid] | > 30 | > 30 | > 30 | 
Cc1nc(-c2cccc(-c3ccc(F)c(C(=O)O)c3)c2)cs1 [Example 6, 4-Fluoro-3′-(2-methylthiazol-4-yl)biphenyl-3-carboxylic Acid] | > 10 |  | > 10 | > 10
O=Cc1cc(-c2cccc(-c3csc(-c4ccccc4)n3)c2)ccc1F [Example 19, 4-Fluoro-3′-(2-phenylthiazol-4-yl)biphenyl-3-carbaldehyde] | 3.67 |  | > 10 | 1.55
O=C(O)c1cc(-c2cccc(-c3csc(-c4ccco4)n3)c2)ccc1F [Example 7, 4-Fluoro-3′-(2-(furan-2-yl)thiazol-4-yl)biphenyl-3-carboxylic Acid] | 2.4 |  | > 10 | > 10
Cc1cc(Cl)ccc1-c1ccc2c(c1)NC(=O)CC(c1ccnc(Cl)c1)=N2 [Example 196, 8-(4-Chloro-2-methylphenyl)-4-(2-chloropyridin-4-yl)-1,3-dihydro-2H-benzo[b][1,4]diazepin-2-one] | 3.59 | 0.6 | 2.94 | 
